{"source": "paper PMC13237142", "about": "“Proteome-wide quantification of inositol pyrophosphate-protein interactions” (Nature Communications, 2026)", "key": {"[1]": {"details": "in the presence of Mg^2+ ions; cited from earlier work"}, "XPR1": {"system": "XPR1", "details": "compared with InsP6 and 5PP-InsP5; cited from earlier work"}, "PMVK": {"target": "T1, PMVK (Homo sapiens, UniProt Q15126)", "T1 construct": "6xHis (N, cleaved yes); V5 (N, cleaved yes); made in house; host or cells: E. coli BL21 (DE3)", "T1 sequence (Q15126 1-192)": "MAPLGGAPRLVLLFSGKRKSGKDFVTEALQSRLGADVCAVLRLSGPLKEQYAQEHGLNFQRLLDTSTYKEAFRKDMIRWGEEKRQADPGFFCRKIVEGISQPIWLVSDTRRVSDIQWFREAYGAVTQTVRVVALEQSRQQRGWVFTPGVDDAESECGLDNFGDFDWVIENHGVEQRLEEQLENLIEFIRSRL", "assay": "Isothermal titration calorimetry with recombinant PMVK", "format": "binding", "details": "ITC, 25 °C, 50 μM protein, 500 μM ligand, buffer pH 7.4 with 1 mM MgCl2; triplicate", "protocol": "Protein stocks were subjected to buffer exchange using final buffer conditions: 25 mM HEPES, pH 7.4, 150 mM KCl, 1 mM MgCl2, 40 mM NaCl, 0.5 mM TCEP (ITC buffer). The exact protein concentration was determined by BCA assay and adjusted to 50 μM. […] ITC experiments were carried out at 25 °C in a MicroCal PEAQ-ITC calorimeter (Malvern Panalytical GmbH, Kassel, Germany), with ca. 50 μM protein in the cell and 500 μM ligand in the syringe. InsPs were titrated into the solution in nineteen 2 μL-steps. Spacing between injections was 150 s. The corresponding instrument software (MicroCal PEAQ-ITC Analysis) was used for baseline correction, peak integration, data fitting and determination of binding parameters. All experiments were carried out in triplicate."}, "[2]": {"system": "proteins of HEK293T cell lysates (cytosolic/nuclear, EDTA/Mg2+)", "assay": "Proteome-wide KDapp, all four lysate preparations together", "format": "binding, human", "details": "Mg^2+ ions present; read-out: KD^app values of the top 50 proteins"}, "PDAP1": {"target": "T2, PDAP1 (Homo sapiens, UniProt Q13442)", "T2 construct": "endogenous in cells; host or cells: HEK293T cytosolic fraction", "T2 sequence (Q13442 1-181)": "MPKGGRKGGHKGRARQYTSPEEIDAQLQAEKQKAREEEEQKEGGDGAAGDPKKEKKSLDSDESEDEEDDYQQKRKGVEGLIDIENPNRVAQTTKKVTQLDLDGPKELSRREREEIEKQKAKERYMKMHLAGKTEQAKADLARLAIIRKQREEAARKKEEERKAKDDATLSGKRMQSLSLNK", "assay": "KDapp by affinity enrichment/TMT-MS", "format": "binding", "details": "Mg^2+(cyto) HEK293T lysate; read-out: KD^app", "protocol": "(§1) Cells were lysed using two different lysis buffers (containing either 1 mM EDTA or containing 1 mM Mg^2+), and the lysates were separated into nuclear and cytosolic fractions to provide deeper proteome coverage (Supplementary Fig. 8). […] Following quick washing steps, the retained proteins were eluted with an excess of the corresponding free ligand. The samples were digested with trypsin, followed by 11-plex TMT isobaric labeling, subsequent sample pooling, and LC-MS/MS analysis. To ensure robustness of the datasets, the experiments were performed in biological triplicates, and only proteins fully quantified in at least two replicates were further analyzed. […] In addition, model validity was assessed by an F-test comparing the Hill-like fit to a null model, and only proteins with statistically significant fits (p ≤ 0.05) were considered. Furthermore, a cutoff of log2 fold-change ≥ 1 between the endpoints was applied (Supplementary Data 1).\n(§2) Cells were washed twice with ice-cold 0.9 mM NaCl in H2O (10 mL), carefully scraped off, added to protein low-binding microcentrifuge tubes, and ice-cold PBS (1 mL) was added. The cells were pelleted for 2 min, 250 g at 4 °C, and the supernatant was removed. The pellet was washed twice with ice-cold PBS (1 mL), the supernatant was removed, and the pellet was kept on ice. […]"}, "MMTAG2": {"target": "T3, MMTAG2 (Homo sapiens, UniProt Q9BU76)", "T3 construct": "endogenous in cells; host or cells: HEK293T nuclear fraction (Mg2+)", "T3 sequence (Q9BU76 whole entry)": "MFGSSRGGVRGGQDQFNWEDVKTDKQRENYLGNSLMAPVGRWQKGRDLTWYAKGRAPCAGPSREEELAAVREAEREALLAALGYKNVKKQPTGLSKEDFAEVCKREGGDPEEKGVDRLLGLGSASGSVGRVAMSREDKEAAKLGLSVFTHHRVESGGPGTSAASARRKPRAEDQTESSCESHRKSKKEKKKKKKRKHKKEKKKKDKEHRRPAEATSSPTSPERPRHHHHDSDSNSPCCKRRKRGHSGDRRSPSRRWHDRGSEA", "assay": "KDapp by affinity enrichment/TMT-MS", "format": "binding", "details": "Mg^2+nucl HEK293T lysate; read-out: KD^app", "protocol": "as §1, §2"}, "POLR2I": {"target": "T4, POLR2I (Homo sapiens, UniProt P36954)", "T4 construct": "endogenous in cells; host or cells: HEK293T lysate fraction", "assay": "KDapp by affinity enrichment/TMT-MS", "details": "binding curve, Supplementary Fig. 9"}, "PPIP5K2": {"target": "T5, PPIP5K2 (Homo sapiens, UniProt O43314)", "T5 construct": "endogenous in cells; host or cells: HEK293T cytosolic fraction (Mg2+)", "T5 sequence (O43314 1-1243)": "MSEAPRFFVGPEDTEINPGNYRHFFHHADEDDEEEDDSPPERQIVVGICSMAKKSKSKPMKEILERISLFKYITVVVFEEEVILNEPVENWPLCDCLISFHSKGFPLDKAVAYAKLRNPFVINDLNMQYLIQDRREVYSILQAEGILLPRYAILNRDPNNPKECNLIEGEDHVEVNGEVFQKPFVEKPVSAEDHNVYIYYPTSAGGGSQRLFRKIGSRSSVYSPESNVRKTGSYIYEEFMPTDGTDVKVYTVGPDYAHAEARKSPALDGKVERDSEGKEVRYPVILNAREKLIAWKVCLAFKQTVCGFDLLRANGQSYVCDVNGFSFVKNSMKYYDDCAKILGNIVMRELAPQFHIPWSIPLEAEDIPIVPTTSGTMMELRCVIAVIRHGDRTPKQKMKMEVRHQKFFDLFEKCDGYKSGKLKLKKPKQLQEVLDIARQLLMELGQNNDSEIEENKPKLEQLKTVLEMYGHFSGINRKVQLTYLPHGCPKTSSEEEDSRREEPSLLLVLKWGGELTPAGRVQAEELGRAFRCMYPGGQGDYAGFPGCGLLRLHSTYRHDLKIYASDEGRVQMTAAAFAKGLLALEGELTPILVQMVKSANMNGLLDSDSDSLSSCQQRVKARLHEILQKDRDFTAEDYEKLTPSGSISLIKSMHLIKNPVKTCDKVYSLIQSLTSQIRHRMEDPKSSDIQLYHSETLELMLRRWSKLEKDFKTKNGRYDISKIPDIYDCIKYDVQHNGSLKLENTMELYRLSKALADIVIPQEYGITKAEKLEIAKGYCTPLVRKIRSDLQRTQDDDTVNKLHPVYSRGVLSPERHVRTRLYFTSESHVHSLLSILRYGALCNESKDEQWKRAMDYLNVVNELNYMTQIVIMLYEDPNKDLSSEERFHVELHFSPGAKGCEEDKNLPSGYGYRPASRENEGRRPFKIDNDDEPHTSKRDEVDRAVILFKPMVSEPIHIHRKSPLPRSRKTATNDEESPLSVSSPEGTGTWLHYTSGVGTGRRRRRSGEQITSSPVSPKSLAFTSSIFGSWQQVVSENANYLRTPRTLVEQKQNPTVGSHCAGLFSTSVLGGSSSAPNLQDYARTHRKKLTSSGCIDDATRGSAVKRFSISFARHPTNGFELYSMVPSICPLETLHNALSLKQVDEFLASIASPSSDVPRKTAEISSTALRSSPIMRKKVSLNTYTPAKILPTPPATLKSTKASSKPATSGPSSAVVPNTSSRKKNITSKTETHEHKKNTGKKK", "assay": "KDapp by affinity enrichment/TMT-MS", "format": "binding", "details": "in the presence of Mg^2+ ions, cytosolic dataset", "protocol": "as §1, §2"}}, "data": [{"smiles": "O=P(O)(O)O[C@@H]1[C@@H](OP(=O)(O)O)[C@H](OP(=O)(O)OP(=O)(O)O)[C@@H](OP(=O)(O)O)[C@H](OP(=O)(O)OP(=O)(O)O)[C@@H]1OP(=O)(O)O", "note": "[1,5(PP)2-InsP4, bis-1,5-diphosphoinositol tetrakisphosphate]", "values": [{"measurement": "fraction adopting the flipped conformation", "setting": "[1]", "result": "~30", "unit": "%"}, {"measurement": "in vitro binding affinity to XPR1", "setting": "XPR1", "result": "highest"}]}, {"smiles": "O=P(O)(O)O[C@H]1[C@@H](OP(=O)(O)O)[C@H](OP(=O)(O)O)[C@@H](OP(=O)(O)OP(=O)(O)O)[C@H](OP(=O)(O)O)[C@H]1OP(=O)(O)O", "note": "[5PP-InsP5, 5-diphosphoinositol pentakisphosphate]", "values": [{"measurement": "Kd", "setting": "PMVK", "result": "9500 ± 1000", "unit": "nM"}]}, {"smiles": "O=C(CCCC[C@@H]1SC[C@@H]2NC(=O)N[C@@H]21)NCCOCCOCCOCCOCCOP(=O)(O)O[C@@H]1[C@@H](OP(=O)(O)O)[C@H](OP(=O)(O)CP(=O)(O)O)[C@@H](OP(=O)(O)O)[C@H](OP(=O)(O)CP(=O)(O)O)[C@@H]1OP(=O)(O)O", "note": "[b-1,5(PCP)2-InsP4]", "values": [{"measurement": "Kd", "setting": "[2]", "result": "< 1000", "unit": "nM"}, {"measurement": "Kd", "setting": "PDAP1", "result": 600, "unit": "nM"}, {"measurement": "Kd", "setting": "MMTAG2", "result": 1900, "unit": "nM"}, {"measurement": "binding to POLR2I", "setting": "POLR2I", "result": "strong binding"}, {"measurement": "binding to PPIP5K2 (binding curves)", "setting": "PPIP5K2", "result": "tight binding"}]}, {"smiles": "O=P(O)(O)O[C@H]1[C@H](OP(=O)(O)O)[C@@H](OP(=O)(O)O)[C@H](OP(=O)(O)O)[C@@H](OP(=O)(O)O)[C@H]1OP(=O)(O)O", "note": "[InsP6, inositol hexakisphosphate]", "values": [{"measurement": "Kd", "setting": "PMVK", "result": "4000 ± 300", "unit": "nM"}]}]}
